What all share (test): inhibition of tumour cell growth, NCI panel, 48 h
Experiment [1] relates to K-562 leukemia.
The test system of experiment [2] is UO-31 renal.
The subject of experiment [3] is SF-295 CNS.
Experiment [4] relates to DU-145 prostate.
In experiment [5] the test system is HOP-92 NSCLC.
The test system of experiment [6] is UACC-62 melanoma.
Experiment [7] concerns MOLT-4 leukemia.
Experiment [8] concerns OVCAR-8 ovarian.
Experiment [9] deals with A549 NSCLC.
Experiment [10] deals with NCI/ADR-RES ovarian.
Experiment [11] relates to HT29 colon.
For experiment [12], the system named is MALME-3M melanoma.
Experiment [13] relates to HCT-15 colon.
Experiment [14] deals with KM12 colon.
The subject of experiment [15] is CAKI-1 renal.
Experiment [16] deals with T-47D breast.
Experiment [17] deals with OVCAR-5 ovarian.
Experiment [18] relates to A498 renal.
Experiment [19] concerns RXF 393 renal.

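Tested at 5 concentrations; 48 h exposure; 96-well plates; endpoints linearly interpolated, else capped at highest concentration. At the TGI there is no net growth.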 Where only a bound is given, the exact number is not on record here.

Consider `CC1(C)[C@H]2Cc3cc4nc5ccccn5c4cc3[C@@H]1C2`, for which the TGI in experiment [1] was greater than 100 µM; in experiment [2], 26.9 µM; in experiment [3], 30.8 µM; in [4] it was 41 µM; in experiment [5] it was 29.3 µM; in experiment [6], 29.9 µM. The TGI turned out to be 54.8 µM in [7]; 30.5 µM in [8]; 40.7 µM in experiment [9]; 36.7 µM in experiment [10]; 28.3 µM in [11]; 25.7 µM in experiment [12]. Also, the TGI in experiment [13] was found to be 35 µM; in experiment [14] it was 36.7 µM; in experiment [15], 30 µM; in [16], 53.7 µM; in experiment [17], 30.8 µM.

Take `S=C1NNC2(C(=S)N1)c1ccccc1-c1ccccc12`: the TGI in experiment [1], in experiment [2], in [4], in [5], in experiment [6] and in experiment [7] was greater than 10 µM throughout. In addition, the TGI in experiment [8], in experiment [9], in experiment [10], in experiment [11], in experiment [12] and in experiment [13] was greater than 10 µM in each case. The TGI in experiment [14], in [15], in experiment [18] and in experiment [16] was greater than 10 µM in each case.

On to `NC1NCCC(=O)N1CCc1c[nH]c2ccccc12` (configuration not stated), for which the TGI in [1] was 51 µM; in experiment [2], greater than 100 µM; in experiment [3], 64.6 µM; in [19] it was 43.5 µM; in experiment [4], 63 µM; in experiment [5] it was 69.5 µM. In addition, the TGI amounted to 37.6 µM in experiment [6]; 89.1 µM in experiment [8]; 69.3 µM in experiment [9]; 69.4 µM in experiment [10]; 82.9 µM in experiment [11]; 40.1 µM in experiment [12]. For the same compound, the TGI in experiment [13] is 65 µM; in experiment [14], 29.8 µM; in experiment [15], 94.4 µM; in experiment [18], 27.9 µM; in experiment [16] it was greater than 100 µM; in [17] it was 69.3 µM.

As for `Cc1ccc(-c2cc(=O)c(=O)[nH][nH]2)cc1`, the TGI in experiment [1], in experiment [2], in experiment [3], in experiment [19], in [4] and in experiment [5] was greater than 100 µM in each case. Moreover, the TGI in experiment [6], in experiment [7], in experiment [8], in experiment [9], in experiment [10] and in experiment [11] was greater than 100 µM throughout. In addition, the TGI in experiment [13], in experiment [14], in [15], in [18], in experiment [16] and in experiment [17] was greater than 100 µM throughout.

Take `CC(=O)OCC1OC(O[C@H]2C=C[C@@H](C(=O)OCc3ccccc3)n3c(=O)n(-c4ccccc4)c(=O)n32)C(OC(C)=O)C(OC(C)=O)C1OC(C)=O` (some centres not stated): the TGI is 8.72 µM in [1]; 2.93 µM in [2]; 25.3 µM in experiment [3]; 4.07 µM in experiment [19]; 8.47 µM in experiment [4]; 3.9 µM in experiment [5]. The TGI in [6] is 3.18 µM; in experiment [7] it was 5.72 µM; in experiment [8] it was 7.41 µM; in experiment [9] it was 35.3 µM; in experiment [10], greater than 100 µM; in [11] it was 3.49 µM. In addition, the TGI was determined as 2.44 µM in [13]; 12.2 µM in experiment [14]; 2.98 µM in [15]; 5.33 µM in experiment [18]; 8.33 µM in [16]; 4.75 µM in [17].

Take `C/C(=N\O)c1cccc(Nc2c3ccccc3nc3occc23)c1`: the TGI is greater than 100 µM in experiment [1]; greater than 100 µM in [2]; 26.7 µM in experiment [3]; 59.2 µM in [4]; 47.9 µM in experiment [5]; 49.1 µM in experiment [6]. The TGI in experiment [7] is greater than 100 µM; in [8], 83 µM; in experiment [9] it was 58.5 µM; in [10], greater than 100 µM; in experiment [11], 95.7 µM; in experiment [12] it was 9.7 µM. In addition, the TGI was greater than 100 µM in [13]; greater than 100 µM in experiment [14]; 9.3 µM in experiment [15]; greater than 100 µM in experiment [18]; 21.7 µM in experiment [16]; greater than 100 µM in [17].

On to `COC(=O)[C@H](Cc1ccccc1)NC(=O)N(CCNC(=O)OC(C)(C)C)c1ccccc1`, for which the TGI in [1], in experiment [2], in [3], in experiment [19], in [4] and in experiment [6] was greater than 100 µM in each case. For the same compound, the TGI in [7], in [8], in experiment [9], in [10], in experiment [11] and in experiment [12] was greater than 100 µM in each case. Further, the TGI in experiment [13], in experiment [14], in [15], in experiment [18], in [16] and in experiment [17] was greater than 100 µM each time.

With `O=C(CC(C(=O)c1cccs1)c1ccc2c(c1)OCO2)c1ccccc1` (configuration not stated), the TGI in [2], in experiment [3], in [19], in experiment [4], in [5] and in experiment [6] was greater than 100 µM throughout. Also, the TGI in experiment [8], in [9], in [10], in experiment [11], in experiment [12] and in experiment [13] was greater than 100 µM in each case. Also, the TGI in experiment [14], in [15], in experiment [18] and in experiment [16] was greater than 100 µM throughout.

On to `CCCCCCCCCCCCc1ccsc1-c1ccc(-c2ccc(-c3sccc3CCCCCCCCCCCC)s2)s1`, for which the TGI in experiment [1], in experiment [2], in experiment [3], in [19], in [4] and in [5] was greater than 100 µM each time. For the same compound, the TGI in [6], in experiment [7], in experiment [8], in experiment [9], in [10] and in experiment [11] was greater than 100 µM in each case. The TGI in experiment [13], in experiment [14], in experiment [15], in [18], in experiment [16] and in [17] was greater than 100 µM throughout.

In the case of `CN(/N=C/C=N/N(C)C1=NCCN1)C1=NCCN1`, the TGI in experiment [1], in [2], in [3], in [4], in experiment [5] and in experiment [6] was greater than 100 µM each time. Besides, the TGI in [7], in experiment [8], in experiment [9], in experiment [10], in experiment [11] and in experiment [12] was greater than 100 µM throughout. Further, the TGI in experiment [13], in experiment [14], in [15], in [16] and in [17] was greater than 100 µM in each case.

For the compound `COc1ccc(CNc2nc3cc(C(F)(F)F)ccc3nc2C(=O)O)cc1`, the TGI in experiment [1] is 61.3 µM; in [2], 42.5 µM; in [3], greater than 100 µM; in experiment [4], greater than 100 µM; in experiment [5], 62.9 µM; in experiment [6], 49.8 µM. In addition, the TGI in experiment [7] was 52.6 µM; in experiment [8] it was greater than 100 µM; in experiment [9], 95.9 µM; in experiment [10] it was 58.1 µM; in experiment [11], 73.9 µM; in experiment [13], 69.3 µM. Further, the TGI is 63.6 µM in experiment [14]; greater than 100 µM in experiment [15]; 53 µM in experiment [18]; greater than 100 µM in [16]; 94.7 µM in [17].

For the compound `C=C(C)COc1cc(NC(=S)OC(C)C)ccc1Cl`, the TGI amounted to 38.7 µM in [1]; 26.9 µM in [2]; 29.3 µM in experiment [3]; 31.1 µM in experiment [4]; 26.7 µM in [5]; 32.7 µM in experiment [6]. The TGI in experiment [7] was 34.3 µM; in experiment [8], 30.7 µM; in experiment [9], 25.8 µM; in experiment [10], 30.1 µM; in [11], 28.4 µM; in experiment [13] it was 30.6 µM. The TGI is 65.7 µM in experiment [14], 28.7 µM in experiment [15], 26.8 µM in experiment [16] and 29.4 µM in experiment [17].
